Data reported in ChEMBL document CHEMBL5137070, “N-2-(Phenylamino) Benzamide Derivatives as Dual Inhibitors of COX-2 and Topo I Deter Gastrointestinal Cancers via Targeting Inflammation and Tumor Progression” (J Med Chem, 2022).
The source made the active and inactive calls. The rule behind the calls is not given here.

Columns and labels:
HGC-27 [1] = assay: Effect on cell morphology in human HGC-27 cells assessed as lose of adherence at 10 uM incubated for 48 hrs by giemsa staining based microscopic analysis; type: functional
RKO [2] = assay: Effect on cell morphology in human RKO cells assessed as condensed morphology at 10 uM incubated for 48 hrs by giemsa staining based microscopic analysis; type: functional
HGC-27 [3] = assay: Antiproliferative activity against human HGC-27 cells assessed as reduction in cell proliferation incubated for 48 hrs by MTT assay; type: functional, cell-based; conditions: HGC-27, 48 h
HGC-27 [4] = assay: Induction of apoptosis in human HGC-27 cells at 1.1 to 10 uM for 24 hrs by Annexin V-FITC/PI staining based flow cytometry; type: functional, cell-based; conditions: dose 1.1-10 µM
HGC-27 [5] = assay: Effect on cell morphology in human HGC-27 cells assessed as appearance of smaller cells at 10 uM incubated for 48 hrs by giemsa staining based microscopic analysis; type: functional
HGC-27 [6] = assay: Effect on cell morphology in human HGC-27 cells assessed as contracted nucleus at 10 uM incubated for 48 hrs by giemsa staining based microscopic analysis; type: functional
CT26.WT [7] = assay: Antiproliferative activity against mouse CT26.WT cells assessed as reduction in cell proliferation incubated for 48 hrs by MTT assay; type: functional, cell-based
RKO [8] = assay: Antiproliferative activity against human RKO cells assessed as cell viability at <= 0.41 uM for 48 hrs by MTT assay; type: functional; conditions: up to 0.41 µM
RKO [9] = assay: Induction of mitochondrial membrane loss in human RKO at 1.1 to 10 uM and measured after 36 hrs by TMRE dye based flow cytometry; type: functional, cell-based; conditions: dose 1.1-10 µM, DDE = dose-dependent effect
HGC-27 [10] = assay: Antiproliferative activity against human HGC-27 cells assessed as clone formation at 0.37 to 3.3 uM incubated for 4 days by crystal violet staining based analysis; type: functional, cell-based; conditions: dose 0.37-3.3 µM, time 4.0 day
RAW264.7 [11] = assay: Inhibition of LPS induced NO production in mouse RAW264.7 cells at 6.6 uM incubated for 1 hrs followed by LPS stimulation and measured after 24 hrs by Griess reagent based assay; type: functional, cell-based; conditions: time 25.0 hrs
RKO [12] = assay: Antiproliferative activity against human RKO cells assessed as clone formation at 0.04 to 3.3 uM incubated for 4 days by crystal violet staining based analysis; type: functional, cell-based; conditions: dose 0.04-3.3 µM, time 4.0 day
HGC-27 [13] = assay: Induction of cell cycle arrest in human HGC-27 cells assessed as accumulation at G2/M phase at 3.3 to 10 uM for 24 hrs by propidium iodide staining based flow cytometry; type: functional; conditions: dose 3.3-10 µM
RKO [14] = assay: Induction of apoptosis in human RKO cells at 1.1 to 10 uM for 24 hrs by Annexin V-FITC/PI staining based flow cytometry; type: functional, cell-based; conditions: dose 1.1-10 µM
RKO [15] = assay: Effect on cell morphology in human RKO cells assessed as appearance of smaller cells at 10 uM incubated for 48 hrs by giemsa staining based microscopic analysis; type: functional
RKO [16] = assay: Antiproliferative activity against human RKO cells assessed as reduction in cell proliferation incubated for 48 hrs by MTT assay; type: functional, cell-based
CT26.WT [17] = assay: Antiproliferative activity against mouse CT26.WT cells assessed as cell viability at 1.11 uM for 48 hrs by MTT assay; type: functional; conditions: read-out: Activity
RKO [18] = assay: Induction of cell cycle arrest in human RKO cells assessed as accumulation at G2/M phase at 3.3 to 10 uM for 24 hrs by propidium iodide staining based flow cytometry; type: functional; conditions: dose 3.3-10 µM
RKO [19] = assay: Effect on cell morphology in human RKO cells assessed as contracted nucleus at 10 uM incubated for 48 hrs by giemsa staining based microscopic analysis; type: functional
HT-29 = assay: Antiproliferative activity against human HT-29 cells assessed as reduction in cell proliferation incubated for 48 hrs by MTT assay; type: functional, cell-based; conditions: HT-29, 48 h
RAW264.7 [20] = assay: Antiinflammatory activity in mouse RAW264.7 cells assessed as reduction in LPS-induced COX-2 expression at 6.6 uM incubated for 1 hrs followed by LPS stimulation and measured after 24 hrs by western blot analysis; type: functional, cell-based; conditions: time 25.0 hrs
HGC-27 [21] = assay: Antiproliferative activity against human HGC-27 cells assessed as cell viability at <= 0.41 uM for 48 hrs by MTT assay; type: functional; conditions: up to 0.41 µM
HGC-27 [22] = assay: Effect on cell morphology in human HGC-27 cells assessed as appearance of round cells at 10 uM incubated for 48 hrs by giemsa staining based microscopic analysis; type: functional
RKO [23] = assay: Anti-migration activity against human RKO cells assessed as inhibition of cell migration at 0.37 uM and measured after 24 hrs by wound healing assay; type: functional, cell-based
RAW264.7 [24] = assay: Antiinflammatory activity against LPS-stimulated mouse RAW264.7 cells assessed decrease in IL-1beta release at 6.6 uM incubated for 1 hrs followed by LPS stimulation and measured after 24 hrs by ELISA relative to control; type: functional, cell-based; conditions: time 25.0 hrs
SGC-7901 = assay: Antiproliferative activity against human SGC-7901 cells assessed as reduction in cell proliferation incubated for 48 hrs by MTT assay; type: functional, cell-based; conditions: SGC-7901, 48 h
RAW264.7 [25] = assay: Cytotoxicity against mouse RAW264.7 cells assessed as reduction in cell viability at <=11.11 for 24 hrs by MTT assay; type: toxicity, cell-based; conditions: raw264.7, 24 h
RKO [26] = assay: Anti-migration activity against human RKO cells assessed as decrease in cell migration rate at 0.37 uM for 48 hrs by crystalline violet staining based assay; type: functional
RKO [27] = assay: Effect on cell morphology in human RKO cells assessed as lose of adherence at 10 uM incubated for 48 hrs by giemsa staining based microscopic analysis; type: functional
DNA topoisomerase 1 = target: T1, DNA topoisomerase 1 (Homo sapiens, UniProt P11387); assay: Inhibition of human topoisomerase I assessed as DNA relaxation using DNA pBR322 as substrate incubated for 30 mins by ethidium bromide staining based agarose gel electrophoresis
T1 sequence (P11387 whole entry): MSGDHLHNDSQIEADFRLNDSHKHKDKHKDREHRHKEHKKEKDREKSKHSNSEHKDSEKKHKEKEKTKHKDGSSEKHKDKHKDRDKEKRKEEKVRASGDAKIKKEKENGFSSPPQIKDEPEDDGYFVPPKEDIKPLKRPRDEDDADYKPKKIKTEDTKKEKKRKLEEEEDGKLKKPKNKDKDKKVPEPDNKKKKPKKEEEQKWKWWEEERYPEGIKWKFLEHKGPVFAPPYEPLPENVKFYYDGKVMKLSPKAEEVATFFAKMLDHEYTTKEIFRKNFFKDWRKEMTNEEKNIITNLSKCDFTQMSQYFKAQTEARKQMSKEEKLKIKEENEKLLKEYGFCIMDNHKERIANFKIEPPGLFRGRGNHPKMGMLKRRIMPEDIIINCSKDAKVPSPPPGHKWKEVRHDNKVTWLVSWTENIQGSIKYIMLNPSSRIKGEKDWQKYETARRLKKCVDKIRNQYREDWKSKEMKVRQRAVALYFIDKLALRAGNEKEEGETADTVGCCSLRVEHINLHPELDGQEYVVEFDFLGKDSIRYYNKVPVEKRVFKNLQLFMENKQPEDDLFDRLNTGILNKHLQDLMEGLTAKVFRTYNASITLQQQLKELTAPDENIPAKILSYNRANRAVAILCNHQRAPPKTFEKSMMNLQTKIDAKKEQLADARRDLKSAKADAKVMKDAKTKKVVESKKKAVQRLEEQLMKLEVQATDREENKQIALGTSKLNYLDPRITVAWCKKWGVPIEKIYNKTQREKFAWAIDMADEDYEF

[28] = target: T2, DNA topoisomerase 1 (Homo sapiens) (UniProt P11387); assay: Inhibition of human topoisomerase I assessed as DNA unwinding using DNA pBR322 as substrate at 2 uM incubated for 30 mins by ethidium bromide staining based agarose gel electrophoresis
T2 sequence (whole entry): T1 sequence (P11387 whole entry)

HGC-27 [29] = assay: Induction of mitochondrial membrane loss in human HGC-27 at 1.1 to 10 uM and measured after 36 hrs by TMRE dye based flow cytometry; type: functional, cell-based; conditions: dose 1.1-10 µM, DDE = dose-dependent effect
RKO [30] = assay: Effect on cell morphology in human RKO cells assessed as appearance of round cells at 10 uM incubated for 48 hrs by giemsa staining based microscopic analysis; type: functional
HGC-27 [31] = assay: Effect on cell morphology in human HGC-27 cells assessed as condensed morphology at 10 uM incubated for 48 hrs by giemsa staining based microscopic analysis; type: functional
HGC-27 [32] = assay: Anti-migration activity against human HGC-27 cells assessed as decrease in cell migration rate at 0.37 uM for 48 hrs by crystalline violet staining based assay; type: functional

With `Cc1c(Cl)cccc1Nc1ccc(F)cc1C(=O)NCc1ccc(O)c(F)c1` the Activity (HGC-27 [1]) was “Active”, the Activity (RKO [2]) was “Active” and the IC50 (HGC-27 [3]) was 7.23 µM. For the same compound, the Activity (HGC-27 [4]) was “Active”, the Activity (HGC-27 [5]) was “Active” and the Activity (HGC-27 [6]) was “Active”. For the same compound, the IC50 (CT26.WT [7]) was 8.88 µM, the Activity (RKO [8]) was greater than 80% and the Activity (RKO [9]) was “Dde”. For the same compound, the Activity (HGC-27 [10]) was “Active”, the inhibition (RAW264.7 [11]) was “Active” and the Activity (RKO [12]) was “Active”. The Activity (HGC-27 [13]) was “Active”, the Activity (RKO [14]) was “Active” and the Activity (RKO [15]) was “Active”. For the same compound, the IC50 (RKO [16]) was 6.74 µM, the viability at 1.11 µM (CT26.WT [17]) was greater than 80% and the Activity (RKO [18]) was “Active”. For the same compound, the Activity (RKO [19]) was “Active”, the IC50 (HT-29) was 15.8 µM and the Activity (RAW264.7 [20]) was “Active”. For the same compound, the Activity (HGC-27 [21]) was greater than 80%, the Activity (HGC-27 [22]) was “Active” and the Activity (RKO [23]) was “Active”. The Activity (RAW264.7 [24]) was “Active”, the IC50 (SGC-7901) was 14.3 µM and the Activity (RAW264.7 [25]) was greater than 80%. For the same compound, the Activity (RKO [26]) was “Active”, the Activity (RKO [27]) was “Active” and the IC50 (DNA topoisomerase 1) was 4.79 µM. The inhibition [28] was 41.1%, the Activity (HGC-27 [29]) was “Dde” and the Activity (RKO [30]) was “Active”. For the same compound, the Activity (HGC-27 [31]) was “Active” and the Activity (HGC-27 [32]) was “Active”.
